{"source": "patent US20240350402A1", "about": "“TOPICAL DRUG TREATMENT TO PREVENT OR REDUCE CORNEAL SCARRING” (The Cleveland Clinic Foundation, priority 2021, published 2024)", "key": {"[1]": {"tested_on": "rabbit corneas after Descemetorhexis", "experiment": "Descemetorhexis (DMR) model: standardized slit lamp photographs, ImageJ intensity of central opacity", "assay_type": "in vivo", "conditions": "one month; for intensity of opacity in a 2.5 mm circle of central cornea (ImageJ) vs DMR vehicle or DMR oral losartan groups: P<0.05", "protocol": "All procedures involving animals were approved by the Institutional Animal Care and Use Committee (IACUC) at the Cleveland Clinic Foundation (Cleveland, OH, USA) and the Animal Care and Use Review Office of the Department of the Army (Fort Detrick, MD). All animals were treated in accordance with the tenets of the ARVO Statement for the Use of Animals in Ophthalmic and Vision Research. Twenty-eight 10- to 15-week-old female New Zealand White rabbits weighing 2.5 to 3.0 kg each were included in this study—four in each group.\n(§1) The rabbits had general anaesthesia with 30 mg/kg ketamine hydrochloride and 5 mg/kg xylazine by IM injection. In addition, topical proparacaine hydrochloride 1% (Alcon, Ft Worth, TX, USA) was applied to each eye prior to the surgery. One cornea selected at random in each group either had sham surgery without Descemetorhexis or an 8 mm diameter central Descemet's membrane-endothelial excision. The time point of one month after surgery was selected for the study because myofibroblasts and fibrosis in the posterior cornea was maximal at this time point in a prior time course Descemetorhexis study (Sampaio et al., 2021). Descemetorhexis was performed as described in the prior study (Sampaio et al., 2021). Briefly, a wire lid speculum was placed into one eye of each rabbit and an 8 mm diameter gentian violet circle was marked on the epithelial surface for reference. A limbal entry incision was created with a 1.6 mm blade (Bausch and Lomb, Rochester, NY, USA) and 0.3 ml Healon OVD (Abbott Medical Optics Inc. Santa Ana, CA, USA) was injected into the anterior chamber. A reversed Sinskey hook (Katena, Denville, New Jersey, USA) was placed into the anterior chamber and an 8 mm diameter disc of Descemet's membrane and endothelium was excised underlying the 8 mm area previously marked on the anterior corneal surface, without a subsequent endothelial corneal transplant. No removal of Descemet's membrane or endothelium was performed in unwounded sham surgery eyes. Remaining Healon OVD was removed with a Simcoe irrigation and aspiration cannula (Bausch & Lomb, Storz, Rochester, NY, USA) and the anterior chamber was filled with balanced salt solution (BSS). A single 10-0 nylon suture was placed at the incision site to prevent leakage from the anterior chamber. One drop of ciprofloxacin (Alcon, Ft. Worth, TX, USA) was applied to the corneas immediately after surgery and four times a day until the epithelium entry wound healed at approximately 2 days.\nThe oral solution was prepared with 5 ml distilled water+50 ml ora-plus (suspending vehicle—Perrigo, Dublin, Ireland)+45 ml Ora-sweet (flavored syrup vehicle—Perrigo).\nAfter one month of treatment, study eyes were dilated with two drops of 1% tropicamide (Akom Co., Lake Forest, IL) for thirty minutes. After general anaesthesia, the study eye in each rabbit had standardized slit lamp photographs at 20× magnification with a Haag Streit (Mason, OH, USA) BX900 slit lamp photography system using identical lighting position and intensity. For each study eye, the intensity of a 2.5 mm diameter central circle (not including the light reflex, examples shown in FIG. 1) was determined using ImageJ 1.53a analysis software. Statistical comparisons of the intensity of opacity was performed using the Kruskal-Wallis test followed by post-hoc Dunn's-Bonferroni test and p<0.05 was considered statistically significant"}, "TGF beta-1": {"tested_on": "TGF beta-1", "experiment": "DMR model: IHC TGF beta-1 in posterior stroma", "assay_type": "in vivo, rabbit", "conditions": "topical and/or oral losartan, one month", "protocol": "as §1, with “No removal of Descemet's membrane or endothelium was performed in unwounded sham surgery eyes. Remaining Healon OVD was removed with a Simcoe irrigation and aspiration cannula (Bausch & Lomb, Storz, Rochester, NY, USA) and the anterior chamber was filled with balanced salt solution (BSS). A single 10-0 nylon suture was placed at the incision site to prevent leakage from the anterior chamber. One drop of ciprofloxacin (Alcon, Ft. Worth, TX, USA) was applied to the corneas immediately after surgery and four times a day until the epithelium entry wound healed at approximately 2 days.” left out"}, "collagen type IV": {"tested_on": "collagen type IV", "experiment": "Alkali burn model: IHC collagen type IV intensity in anterior and posterior stroma (ImageJ)", "assay_type": "in vivo, rabbit", "conditions": "one month", "protocol": "Worth, TX) and a 5 mm diameter circular Whatman No. 1 filter paper (Cat #1001-6508, Fisher Scientific) wetted with 100 μl of 1N NaOH solution. Following the alkali burn injury, the cornea was irrigated profusely with BSS. Each injured cornea also received one drop of ciprofloxacin (Alcon, Ft. Worth, TX, USA) ten minutes after surgery and four times a day for one week and at least 15 minutes apart from the study medications. […] Worth TX), at least 5 minutes apart, or 4) 50 μl of BSS. Multiplex immunohistochemistry (IHC) was performed using previously described methods^8 and primary antibodies (Table 7) confirmed by western blotting and IHC to recognize rabbit antigens or isotypic control antibodies (Thermo Fisher Scientific, Waltham, MA), and secondary fluorescent tagged antibodies (Table 7). The collagen type IV antibody (Cat. #AB769, Millipore, Temecula CA) was raised against purified human and bovine collagen type IV that had been affinity purified with human and bovine collagen type IV crosslinked to agarose and cross-absorbed by the manufacturer with human and bovine collagens type I, II, III, V and VI to eliminate cross-reactivity. This collagen type IV antibody was shown previously to bind rabbit collagen IV in IHC,^8,9 and recognizes the alpha-1/alpha-2 chains but not the alpha-3 to alpha-6 chains. The keratocan antibody is raised against peptide […]-OH (SEQ ID NO:1). This marker was used to identify keratocytes in situ. […] All corneas in each group had IHC for collagen type IV. Images from each cornea were converted to uniform 300 DPI, 875×568 pixel, files. […] The staining intensity within each box was determined with the analyze histogram function and the mean of three boxes was the intensity value in the anterior or posterior stroma for that cornea."}}, "data": [{"smiles": "CCCCc1nc(Cl)c(CO)n1Cc1ccc(-c2ccccc2-c2nn[nH]n2)cc1", "note": "[losartan]", "values": [{"measurement": "intensity of opacity in the central cornea, topical vs topical and oral losartan", "setting": "[1]; DMR", "value": "no significant difference"}, {"measurement": "scarring fibrosis and neovascularization compared to DMR vehicle control corneas", "setting": "[1]; DMR, oral 5 mg/kg three times a day", "value": "no difference"}, {"measurement": "changes in corneal opacity and neovascularization vs topical losartan alone", "setting": "[1]; DMR, topical 0.4 mg/ml six times per day + oral 5 mg/kg three times a day", "value": "not different"}, {"measurement": "scarring fibrosis (slit lamp)", "setting": "[1]; DMR, topical 0.4 mg/ml six times per day", "value": "overall decrease"}, {"measurement": "intensity of opacity in a 2.5 mm circle of central cornea (ImageJ) vs DMR vehicle or DMR oral losartan groups", "setting": "[1]; DMR, topical losartan and oral losartan", "value": "significant decrease"}, {"measurement": "corneal neovascularization after Descemetorhexis", "setting": "[1]; DMR, topical losartan", "value": "reduced"}, {"measurement": "intensity of opacity in a 2.5 mm circle of central cornea (ImageJ) vs DMR vehicle or DMR oral losartan groups", "setting": "[1]; DMR, topical losartan", "value": "significant decrease"}, {"measurement": "transparency of sham unwounded corneas", "setting": "[1]; 0.4 mg/ml topical losartan six times per day", "value": "no effect"}, {"measurement": "transparency of sham unwounded corneas", "setting": "[1]; oral 5 mg/kg losartan three times per day", "value": "no effect"}, {"measurement": "levels of TGF beta-1 in the posterior stroma or at the posterior stromal surface compared to vehicle-treated corneas", "setting": "TGF beta-1", "value": "No effect"}, {"measurement": "COL IV staining intensity in the posterior stroma vs vehicle treatment", "setting": "collagen type IV", "value": "significantly different"}, {"measurement": "mean intensity units of collagen type IV in the anterior stroma compared to vehicle treatment", "setting": "collagen type IV", "value": "significantly decreased"}]}]}
